The values below are quoted from earlier work in patent US20120308672A1, “COMPOSITIONS FOR HAIR AND BODY APPLICATION” (EQYSS GROOMING PRODUCTS, priority 2004, published 2012).

This data set deals with mosquitoes. The note with it: topical repellent.

With `CCN(CC)C(=O)c1cccc(C)c1` [DEET, N,N,-diethyl-m-toluamide], the protection against mosquitoes result is “effective and long-lasting protection”.
